The record followed here is PMC12172596, “Unveiling New Triazoloquinoxaline‐Based PROTACs Designed for the Selective Degradation of the ncBAF Chromatin Remodeling Subunit BRD9” (Chemistry (Weinheim an Der Bergstrasse, Germany), 2025).

One test has as its system U937 cells. The test is described as follows: CCK8 viability assay in U937 cells. It counts as cell-based, human. The procedure:
(§1) The AML U937 cell line (ATCC) was grown in Roswell Park Memorial Institute (RPMI) 1640 Medium with the addition of 10% fetal bovine serum (FBS), 1% L‐glutamine, and 1% antibiotics (100 U/mL penicillin, 100 µg/mL streptomycin, and 250 ng/mL amphotericin‐B). Cells have been authenticated by STR profiling.
CCK8 was purchased from Elabscience and used according to manufacturer instructions, briefly: 100 µL of cell suspension was added to each well using a 96‐well microplate. Cells were then incubated at 37 °C, in a 5% CO2 incubator for 24 hours. Compounds were added to the cells and incubated for an additional 48 hours at 37 °C. Next, 10 µL of CCK‐8 Buffer was added to each well, and cells were incubated again for 4 hours. Next, 450 nm absorbance was measured using a TECAN microplate reader.

For another test, the target named is T1, BRD7 (Homo sapiens, UniProt Q9NPI1).
T1 construct: WB analysis showing BRD9 and BRD7 protein levels following 48‐hours treatment with compound 9; endogenous in cells; host or cells: U937 (ATCC)
T1 sequence (Q9NPI1 1-651): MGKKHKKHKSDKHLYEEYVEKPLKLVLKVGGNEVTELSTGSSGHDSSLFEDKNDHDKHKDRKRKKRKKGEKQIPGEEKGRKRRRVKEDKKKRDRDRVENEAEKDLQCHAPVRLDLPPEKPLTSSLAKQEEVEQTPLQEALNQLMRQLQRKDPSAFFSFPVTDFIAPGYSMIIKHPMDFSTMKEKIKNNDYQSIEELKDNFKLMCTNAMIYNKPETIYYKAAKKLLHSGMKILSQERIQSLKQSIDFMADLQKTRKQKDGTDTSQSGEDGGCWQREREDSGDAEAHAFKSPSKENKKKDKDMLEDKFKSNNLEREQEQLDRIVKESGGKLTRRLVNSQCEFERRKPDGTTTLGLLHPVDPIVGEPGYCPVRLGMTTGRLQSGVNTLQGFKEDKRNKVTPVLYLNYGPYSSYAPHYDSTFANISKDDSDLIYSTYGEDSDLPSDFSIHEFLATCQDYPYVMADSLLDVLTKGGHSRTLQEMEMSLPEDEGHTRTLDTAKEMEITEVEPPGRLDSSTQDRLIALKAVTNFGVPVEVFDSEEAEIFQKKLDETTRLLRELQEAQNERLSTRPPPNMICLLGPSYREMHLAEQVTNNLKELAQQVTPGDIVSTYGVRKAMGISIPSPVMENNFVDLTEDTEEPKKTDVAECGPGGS
Briefly: Western blotting of BRD7 protein levels in U937 cells. Particulars: 48 hours treatment, western blot. It counts as cell-based. On the procedure:
as §1
Western blot was performed according to the previous protocol.^[ [71], [72] ^] U937 AML cells were pelleted and then lysed in RIPA buffer (1% Triton X‐100, 0.1% SDS, 150 mM NaCl, 1 mM EDTA pH 8, 10 mM Tris‐HCl pH 8) added with 1% protease inhibitor cocktail. The resulting lysate was subjected to centrifugation for 15 minutes at 4 °C. After that, the supernatant was collected and supplemented with 6X Laemmli buffer (0.217 M Tris‐HCl pH 8.0, 52.17% SDS, 17.4% glycerol, 0.026% bromophenol blue, 8.7% beta‐mercapto‐ethanol) and boiled for 3 minutes at 99 °C,25 µg of protein extract were resolved by SDS‐polyacrylamide gel electrophoresis and then transferred on nitrocellulose membrane (Bio‐Rad). The membrane was probed with anti‐BRD9 (Bethyl Laboratories #A303‐781A), anti‐BRD7 (Invitrogen #PA5‐40379), anti‐GADPH (Elabscience # E‐AB‐40337), and anti‐α‐tubulin (Elabscience # E‐AB‐20036). The protein signal was visualized by enhanced chemiluminescence method (ECL) through the Bio‐Rad Chemidoc machine. ImageJ software was used for densitometric analysis. […]
For orientation: In western blotting, separated proteins are transferred to a membrane and probed.

Each structure is given as a SMILES string.

Take `CCCCc1nnc2c(Nc3cccc(NC(=O)CCCCCCOCCOCC(=O)N[C@H](C(=O)N4C[C@H](O)C[C@H]4C(=O)NCc4ccc(-c5scnc5C)cc4)C(C)(C)C)c3)nc3ccccc3n12` [compound 9]: the U937 cell viability entry in the test with U937 cells (CCK8, 48 hours treatment) is “significantly impaired leukemic cell viability”. For the same compound, the “ability to reduce leukemic cell viability and AML cell proliferation compared with dBRD9” value with U937 cells (U937 cells, versus reference dBRD9) was “superior ability to reduce leukemic cell viability and AML cell proliferation”. Moreover, the BRD7 protein levels entry at BRD7 is “not interfering with BRD7 protein levels”.
